{
  "source": "patent EP4663632A1",
  "about": "“COMPOUNDS USEFUL FOR THE MODULATION OF THE ACTIVITY OF STING” (Sulis Therapeutics ApS, priority 2024, dated 2025)",
  "key": {"[1]": {"biological_target": "T1, C-terminal domain (CTD) of human STING (Homo sapiens, UniProt Q86WV6)", "assay": "STING binding TR-FRET assay", "design": "purchased CisBio 64BDSTGPEG", "details": "Human STING WT Binding Kit (CisBio)", "experimental": "The affinity of molecules to the C-terminal domain (CTD) of human STING was determined using a commercial Human STING WT Binding Kit (CisBio, cat.# 64BDSTGPEG). In this time-resolved FRET assay, a recombinant human STING protein construct with a His-tag was employed. When bound to STING, a D2-labeled active site probe accepts the 620 nm emission from Anti-HIS-Tb-STING and an increase in fluorescence is measured at 665 nm. Molecules that compete for the probe binding site will result in a low 665 nm signal. The assay was run in CisBio low-volume white 96-well plates (catalog# 66PL96005) containing 5 µL compounds in Diluent Buffer (supplied with the CisBio kit). A solution of 1xSTING, 1x Anti-HIS-Tb and 1X D2-probe in TB detection buffer (kit supplied) was added to the plate. Plates were centrifuged for 2 min at 500 rpm, incubated for 60 min at room temperature in the dark, and then fluorescence emission at 665 nm following 330 nm xenon flash excitation on an BioTek synergy H1 multimode reader (Agilent) was measured. The plC50 values were determined using a standard four parameter curve fit in GraphPad Prism."}, "[2]": {"biological_target": "T1, C-terminal domain (CTD) of human STING", "assay": "STING binding FP assay I", "design": "recombinant human STING protein (155-379)", "details": "35 nM STING, 4 nM Probe 1", "experimental": "The interaction between molecules and the C-terminal domain (CTD) of human STING was evaluated using a competition binding assay. In this assay, recombinant human STING protein (155-379) and a STING binding fluorescent probe were employed. Upon binding of the probe to STING, the rotation of the fluorescent probe is slowed due to the larger molecular size of the protein-bound complex. As a result, emitted light retains its plane of polarization, leading to an increase in fluorescence polarization. Molecules competing for the probe binding site displace the probe, which leads to rapid randomization of the polarization plane of the emitted light and a subsequent decrease in measured fluorescence polarization signal. Change in polarization was measured, allowing a comparative evaluation of the binding affinities of different compounds to the target protein.\nThe assay was performed in 96-well plates (ThermoFisher, cat.# 237108) containing 100µl : 10 µL test compound in 10% DMSO and buffer A (150 mM NaCl, 50 mM HEPES pH 7.5, 1 mM DTT) + 90 µL prepared master mix solution of: 4 nM fluorescein-labelled STING ligand (Probe 1; synthesis described above) in buffer A + 0.055% Tween-20 (v/v) and 35 nM STING in buffer A. Post mixing, plates were agitated at 600rpm and incubated for 20 min at room temperature. Subsequent measurements of the fluorescence polarization signal were made on a BioTek Synergy-H1 plate reader, using a polarization filter; Exc: 485/20 nm, Em: […]) with a gain-setting of 75. IC50 values were determined using a standard non-linear regression four-parameter curve fit in Graphpad Prism."}},
  "data": [
    {"compound": "CCOC(=O)COC(CCn1c(=NC(=O)c2cc(C)nn2CC)n(C)c2cc(C(N)=O)ccc21)CCn1c(=NC(=O)c2cc(C)nn2CC)n(C)c2cc(C(N)=O)ccc21", "note": "(centres unmarked) [Building Block G-2, Ethyl (3-{5-carbamoyl-2-[(1-ethyl-3-methyl-5-pyrazolyl)carbonylimino]-3-methyl-2,3-dihydro-1H-1,3-benzimidazol-1-yl}-1-(2-{5-carbamoyl-2-[(1-ethyl-3-methyl-5-pyrazolyl)carbonylimino]-3-methyl-2,3-dihydro-1H-1,3-benzimidazol-1-yl}ethyl)propoxy)acetate]", "values": [
      {"measurement": "IC50", "setting": "[1]", "result": 0.452, "unit": "nM"},
      {"measurement": "IC50", "setting": "[2]", "result": "< 30", "unit": "nM"}
    ]}
  ]
}
